Patent US20140315886A1, “QUINAZOLINES AS THERAPEUTIC COMPOUNDS AND RELATED METHODS OF USE” (OTSUKA PHARMACEUTICAL CO., LTD., priority 2011, published 2014)
Counter-ions that a name gives are not always drawn.

These compounds were tested against T1, purified STEP46 enzyme (Homo sapiens, UniProt P54829) (assay: STEP46 biochemical assay (DiFMUP fluorescence phosphatase assay)). Details: DiFMUP 10 μM, read-out: STEP IC50.
T1 sequence (P54829 197-565 limits assumed): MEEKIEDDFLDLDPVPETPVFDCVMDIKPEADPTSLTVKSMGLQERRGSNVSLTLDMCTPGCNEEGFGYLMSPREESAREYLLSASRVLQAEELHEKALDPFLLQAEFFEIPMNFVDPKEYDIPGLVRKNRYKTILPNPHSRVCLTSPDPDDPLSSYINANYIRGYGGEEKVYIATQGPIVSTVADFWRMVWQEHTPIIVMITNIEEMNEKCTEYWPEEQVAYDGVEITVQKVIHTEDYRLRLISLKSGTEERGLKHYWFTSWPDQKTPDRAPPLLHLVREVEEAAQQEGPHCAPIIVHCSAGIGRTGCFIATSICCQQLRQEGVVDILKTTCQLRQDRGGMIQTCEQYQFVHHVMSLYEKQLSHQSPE
Experimental: Serial dilutions of compounds were performed in 100% DMSO and 1 uL of compounds were dispensed into 384-well black polystyrene plates (Corning, N.Y.). Compounds were incubated with 24 uL of buffer containing 50 mM Hepes, 1 mM DTT, 0.02% Brij35, 1 ng/well purified STEP46 enzyme for […] at room temperature. The reaction was initiated by addition of 25 uL of DiFMUP (6,8-difluoro-4-methylumbelliferyl phosphate) (InVitrogen, CA) with a final concentration of 10 μM and incubated at 27° C. for 90 mM Final DMSO concentration is 2%. Plates were read with florescence intensity at excitation/emission of 360/460 nm using a PheraStar plate reader (BMG Labtech, NC).
Data were expressed as percentage (%) inhibition of enzyme activity. 0% inhibition is defined as the RFUs (relative fluorescence units) in the absence of compounds and 100% inhibition is defined as RFUs in the absence of STEP46 enzyme. IC50 values of compounds with inhibitory activity against STEP46 were determined by GraphPad Prism (version 4.03) using four parameter logistic equation. Some compounds act as activators. For compounds showing STEP46 enzymatic activation, data are represented as percentage of inhibition but with negative values at three representative concentrations (25, 50 and 100 uM).

Compared with `Cc1c(-c2cncnc2)ccc2c(N3CCc4cc(Cl)ccc43)nc(-c3cccnc3)nc12` [Compound 115], `Cc1c(-c2cccc(F)c2)ccc2c(N3CCc4cc(Cl)ccc43)nc(-c3cccnc3)nc12` [Compound 117] is higher in IC50: < 1 µM for the first, > 10 µM for the second. The first is the more potent here.

`CNc1nc(-c2cccnc2)nc2ccc(OCCCN3CCN(C)CC3)cc12` [Compound 136, N-methyl-6-(3-(4-methylpiperazin-1-yl)propoxy)-2-(pyridin-3-yl)quinazolin-4-amine tetrahydrochloride] and `CCOc1ccc(F)c(-c2ccc3nc(-c4cccnc4)nc(NC)c3c2)c1` [Compound 201] fall in the same range of IC50: 1 to 10 µM for the first, 1 to 10 µM for the second.

First: CCCOc1ccc2nc(-c3cccnc3)nc(N3CCc4cc(Cl)ccc43)c2c1 [Compound 137]
Second: CNc1nc(-c2cccnc2)nc2ccc(-c3cc(Cl)ccc3F)cc12 [Compound 240]
The IC50 of the first is lower: < 1 µM for the first, 1 to 10 µM for the second. The first is the more potent here.

`CNc1nc(-c2cccnc2)nc2cc(-c3cccc(OCC(=O)N(C)C)c3)ccc12` [Compound 138] and `CCOc1cccc(-c2ccc3c(NC)nc(-c4cccnc4)nc3c2)c1` [Compound 141] fall in the same range of IC50: 1 to 10 µM for the first, 1 to 10 µM for the second.

`CNC(=O)COc1cc(F)cc(-c2ccc3c(NC)nc(-c4cccnc4)nc3c2)c1` [Compound 142] and `CNc1nc(-c2cccnc2)nc2cc(-c3cc(F)cc(OCC(=O)N(C)C)c3)ccc12` [Compound 143] fall in the same range of IC50: 1 to 10 µM for the first, 1 to 10 µM for the second.

`CNc1nc(-c2cccnc2)nc2cc(-c3cc(F)cc(OCCOC)c3)ccc12` [Compound 144] and `CCOc1cc(F)cc(-c2ccc3c(NC)nc(-c4cccnc4)nc3c2)c1` [Compound 145] fall in the same range of IC50: 1 to 10 µM for the first, 1 to 10 µM for the second.

`CNc1nc(-c2cncnc2)nc2cc(-c3cc(F)ccc3F)ccc12` [Compound 155] and `CNc1nc(-c2cncc(F)c2)nc2cc(-c3cc(F)ccc3F)ccc12` [Compound 157] fall in the same range of IC50: 1 to 10 µM for the first, 1 to 10 µM for the second.

`CNc1nc(-c2ccc(F)nc2)nc2cc(-c3cc(F)ccc3F)ccc12` [Compound 156] and `CNc1nc(-c2ccc(C)nc2)nc2cc(-c3cc(F)ccc3F)ccc12` [Compound 161] fall in the same range of IC50: 1 to 10 µM for the first, 1 to 10 µM for the second.

`CNc1nc(-c2cccnc2OC)nc2cc(-c3cc(F)ccc3F)ccc12` [Compound 158] and `CNc1nc(-c2cncc(OC)c2)nc2cc(-c3cc(F)ccc3F)ccc12` [Compound 162] fall in the same range of IC50: 1 to 10 µM for the first, 1 to 10 µM for the second.

`CNc1nc(-c2cncc(C)c2)nc2cc(-c3cc(F)ccc3F)ccc12` [Compound 160] and `CNc1nc(-c2cncc(C#N)c2)nc2cc(-c3cc(F)ccc3F)ccc12` [Compound 163] fall in the same range of IC50: 1 to 10 µM for the first, 1 to 10 µM for the second.

`CNc1nc(-c2cccnc2)nc2ccc(-c3cccc(CC(N)=O)c3)cc12` [Compound 166] and `CNc1nc(-c2cccnc2)nc2ccc(-c3cccc(S(N)(=O)=O)c3)cc12` [Compound 235] cannot be ordered by IC50: > 10 µM for the first, > 10 µM for the second.

Compared with `CNc1nc(-c2cccnc2)nc2ccc(-c3ccnc(C#N)c3)cc12` [Compound 167], `CNc1nc(-c2cccnc2)nc2ccc(-c3ncco3)cc12` [Compound 178] is higher in IC50: 1 to 10 µM for the first, > 10 µM for the second. The first is the more potent here.

`CNc1nc(-c2cccnc2)nc2ccc(-c3ccc4[nH]c(=O)[nH]c4c3)cc12` [Compound 168] and `CNc1nc(-c2cccnc2)nc2ccc(-c3ccc4sc(C)nc4c3)cc12` [Compound 169, N-methyl-6-(2-methylbenzo[d]thiazol-5-yl)-2-(pyridin-3-yl)quinazolin-4-amine, 2HCl] cannot be ordered by IC50: < 1 µM for the first, < 1 µM for the second.

First: CNc1nc(-c2cccnc2)nc2ccc(-c3ccc4c(c3)OCCCO4)cc12 [Compound 170]
Second: CNc1nc(-c2cccnc2)nc2ccc(-c3ccc(F)c(C(N)=O)c3)cc12 [Compound 183]
The IC50 of the first is higher: > 10 µM for the first, 1 to 10 µM for the second. The second is the more potent here.

Compared with `CNc1nc(-c2cccnc2)nc2ccc(-c3ccc(CO)cc3)cc12` [Compound 173], `CNc1nc(-c2cccnc2)nc2ccc(-c3ccc(S(=O)(=O)C(C)C)cc3)cc12` [Compound 256] is higher in IC50: 1 to 10 µM for the first, > 10 µM for the second. The first is the more potent here.

`CNC(=O)c1cc(-c2ccc3nc(-c4cccnc4)nc(NC)c3c2)ccc1F` [Compound 180] and `CNc1nc(-c2cccnc2)nc2ccc(-c3ccc(C)cc3F)cc12` [Compound 239] fall in the same range of IC50: 1 to 10 µM for the first, 1 to 10 µM for the second.

`CNc1nc(-c2cccnc2)nc2c(OC)cc(-c3cccc(F)c3F)cc12` [Compound 194] and `CNc1nc(-c2cccnc2)nc2c(OC)cc(-c3ccccc3F)cc12` [Compound 254] fall in the same range of IC50: 1 to 10 µM for the first, 1 to 10 µM for the second.

First: CNc1nc(-c2cccnc2)nc2c(OC)cc(-c3ccc(F)cc3F)cc12 [Compound 195]
Second: CNc1nc(-c2cccnc2)nc2c(OC)cc(-c3cc(F)ccc3F)cc12 [Compound 252]
The IC50 of the first is lower: < 1 µM for the first, 1 to 10 µM for the second. The first is the more potent here.

Compared with `CNc1nc(-c2cccnc2)nc2cc(F)c(-c3ccc(F)cc3F)cc12` [Compound 196], `CNc1nc(-c2cccnc2)nc2cc(Cl)c(-c3ccc(F)cc3F)cc12` [Compound 246] is higher in IC50: < 1 µM for the first, 1 to 10 µM for the second.

`CNc1nc(-c2cccnc2)nc2cc(C(F)(F)F)c(-c3ccc(F)cc3F)cc12` [Compound 198] and `CNc1nc(-c2cccnc2)nc2ccc(-c3ccc(F)cc3C(F)(F)F)cc12` [Compound 248] cannot be ordered by IC50: > 10 µM for the first, > 10 µM for the second.

First: CNc1nc(-c2cccnc2)nc2ccc(-c3ccc(S(C)(=O)=O)c(C(F)(F)F)c3)cc12 [Compound 199]
Second: CNc1nc(-c2cccnc2)nc2ccc(-c3cccc(S(C)(=O)=O)c3)cc12 [Compound 245]
The IC50 of the first is lower: 1 to 10 µM for the first, > 10 µM for the second. The first is the more potent here.

`CNc1nc(-c2cccnc2)nc2ccc(-c3ccc(C(F)(F)F)cc3C(F)(F)F)cc12` [Compound 202] and `CNc1nc(-c2cccnc2)nc2ccc(-c3ccc(OC)cc3C(F)(F)F)cc12` [Compound 249] cannot be ordered by IC50: > 10 µM for the first, > 10 µM for the second.

`CNc1nc(-c2cccnc2)nc2c(OC)cc(-c3cc(F)cc(F)c3)cc12` [Compound 204] and `CNc1nc(-c2cccnc2)nc2c(OC)cc(-c3ccc(F)c(F)c3)cc12` [Compound 255] fall in the same range of IC50: 1 to 10 µM for the first, 1 to 10 µM for the second.

`CNc1nc(-c2cccnc2)nc2c(OC)cc(-c3ccccc3C#N)cc12` [Compound 205] and `CNc1nc(-c2cccnc2)nc2c(OC)cc(-c3ccccc3OC)cc12` [Compound 207] fall in the same range of IC50: 1 to 10 µM for the first, 1 to 10 µM for the second.

First: CNc1nc(-c2cccnc2)nc2c(OC)cc(-c3cccc(C#N)c3)cc12 [Compound 206]
Second: CNc1nc(-c2cccnc2)nc2c(OC)cc(-c3cccc(F)c3)cc12 [Compound 253]
The IC50 of the first is higher: > 10 µM for the first, 1 to 10 µM for the second.

`CNc1nc(-c2cccnc2)nc2c(OC)cc(-c3ccc(OC)cc3)cc12` [Compound 208] and `CNc1nc(-c2cccnc2)nc2cc(-c3ccc(OC)cc3F)ccc12` [Compound 218] fall in the same range of IC50: 1 to 10 µM for the first, 1 to 10 µM for the second.

`CNc1nc(-c2cccnc2)nc2cc(OC(F)(F)F)c(-c3cccc(F)c3)cc12` [Compound 209] and `CNc1nc(-c2cccnc2)nc2ccc(-c3cccc(F)c3)c(F)c12` [Compound 223] fall in the same range of IC50: 1 to 10 µM for the first, 1 to 10 µM for the second.

Compared with `CNc1nc(-c2cncnc2)nc2ccc(-c3cccc(F)c3)cc12` [Compound 210], `Nc1nc(-c2cncnc2)nc2ccc(-c3cccc(F)c3)cc12` [Compound 213] is higher in IC50: 1 to 10 µM for the first, > 10 µM for the second.

Compared with `CNc1nc(-c2ccnnc2)nc2ccc(-c3cccc(F)c3)cc12` [Compound 212], `CNc1nc(-c2cccnc2F)nc2ccc(-c3cccc(F)c3)cc12` [Compound 214] is lower in IC50: > 10 µM for the first, 1 to 10 µM for the second.

First: CNc1nc(-c2cccnc2)nc2cc(-c3cccc(OC)c3F)ccc12 [Compound 215]
Second: CCOc1cccc(-c2ccc3nc(-c4cccnc4)nc(NC)c3c2)c1F [Compound 242]
The IC50 of the first is lower: 1 to 10 µM for the first, > 10 µM for the second.

`CNc1nc(-c2cccnc2)nc2cc(-c3cc(OC)ccc3F)ccc12` [Compound 219] and `CNc1nc(-c2cccnc2)nc2ccc(-c3ccc(F)cc3C)cc12` [Compound 247] fall in the same range of IC50: 1 to 10 µM for the first, 1 to 10 µM for the second.

`CNc1nc(-c2cccnc2C)nc2ccc(-c3cccc(F)c3)cc12` [Compound 220] and `CNc1nc(-c2cccnc2)nc2ccc(-c3c(F)cccc3Cl)cc12` [Compound 241] fall in the same range of IC50: 1 to 10 µM for the first, 1 to 10 µM for the second.

`CNc1nc(-c2cccnc2)nc2ccc(-c3cccc(F)c3F)c(F)c12` [Compound 221] and `CNc1nc(-c2cccnc2)nc2ccc(-c3ccc(F)cc3F)c(F)c12` [Compound 222] fall in the same range of IC50: 1 to 10 µM for the first, 1 to 10 µM for the second.

First: CNc1nc(-c2cccnc2)nc2ccc(-c3cccc(OCCC(C)O)c3)cc12 (stereo not shown) [Compound 224]
Second: CNc1nc(-c2cccnc2)nc2ccc(-c3cccc(OC(C)C)c3)cc12 [Compound 257]
The IC50 of the first is lower: 1 to 10 µM for the first, > 10 µM for the second.

`CNc1nc(-c2cccnc2)nc2cc(OC)c(-c3cccc(F)c3F)cc12` [Compound 230] and `CNc1nc(-c2cccnc2)nc2c(Cl)cc(-c3cccc(F)c3F)cc12` [Compound 243] fall in the same range of IC50: 1 to 10 µM for the first, 1 to 10 µM for the second.

`CNc1nc(-c2cccnc2)nc2ccc(-c3ccc(F)c4ccoc34)cc12` [Compound 233] and `CNc1nc(-c2cccnc2)nc2ccc(-c3cccc(-c4ncco4)c3)cc12` [Compound 250] cannot be ordered by IC50: < 1 µM for the first, < 1 µM for the second.

`CNc1nc(-c2cccnc2)nc2c(Cl)cc(-c3ccc(F)cc3F)cc12` [Compound 244] showed an IC50 of 1 to 10 µM.
